Measured values from patent US11691949B2, “Quinoline sulfonamide compounds and their use as antibacterial agents” (OTAGO INNOVATION LIMITED, priority 2017, dated 2023).
Converted amounts (≈) assume the structure as drawn. Counter-ions that a name gives are not always drawn. Like-named read-outs stand apart in the source and are kept apart here.

Assays:
Type in all cases: cell-based
[1] = system: S. aureus ATCC 6538; assay: MIC by broth microdilution, S. aureus; conditions: Staphylococcus aureus
In short: (§1)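 Media: TSB or CAMHB for S. aureus, LB or CAMHB for E. coli, with zinc sulphate to 50 μM final where required. Cells at ~5×10^5 cfu/mL met two-fold compound series; growth was scored by OD600 after 24 h shaking at 37° C.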

[2] = system: S. uberis ATCC 19436; assay: MIC by broth microdilution, S. uberis; conditions: Streptococcus uberis
In short: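 This broth microdilution assay used S. uberis ATCC 19436 in Todd Hewitt Broth, with zinc sulphate heptahydrate added where required to a final 50 μM. Inhibitor concentration ranges came from two-fold serial dilutions in 96-well flat bottom plates at 200 μl. Approximately 5×10^5 cfu/mL cells were incubated for 24 h at 37° C. and 200 rpm. Wells were then read at OD600 on a Varioskan Flash reader.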

[3] = system: E. coli ATCC 10596; assay: MIC by broth microdilution, E. coli; conditions: Escherichia coli
In short: as §1

[4] = ATCC6538, read-out: S. aureus ATCC 6538 MIC, No Zinc
[5] = ATCC6538, read-out: S. aureus ATCC 6538 MIC, Zinc (50 μM)
[6] = ATCC19436, read-out: S. uberis ATCC 19436 MIC, No Zinc
[7] = ATCC19436, read-out: S. uberis ATCC 19436 MIC, Zinc (50 μM)
[8] = ATCC 10536 / ATCC 10596, read-out: E. coli ATCC 10536 MIC, No Zinc
[9] = ATCC 10536 / ATCC 10596, read-out: E. coli ATCC 10536 MIC, Zinc (50 μM)
[10] = ATCC6538, No Zinc, read-out: S. aureus ATCC 6538 MIC
[11] = ATCC6538, Zinc (50 μM), read-out: S. aureus ATCC 6538 MIC
[12] = ATCC19436, No Zinc, read-out: S. uberis ATCC 19436 MIC
[13] = ATCC19436, Zinc (50 μM), read-out: S. uberis ATCC 19436 MIC
[14] = ATCC 10536 / ATCC 10596, No Zinc, read-out: E. coli ATCC 10536 MIC
[15] = ATCC 10536 / ATCC 10596, Zinc (50 μM), read-out: E. coli ATCC 10536 MIC

MIC [1, 10] [mg/L]	MIC [1, 11] [mg/L]	MIC [2, 12] [mg/L]	MIC [2, 13] [mg/L]	MIC [3, 14] [mg/L]	MIC [3, 15] [mg/L]	Compound	MIC [1, 4] [mg/L]	MIC [1, 5] [mg/L]	MIC [2, 6] [mg/L]	MIC [2, 7] [mg/L]	MIC [3, 8] [mg/L]	MIC [3, 9] [mg/L]
–	–	–	–	–	–	NC(=O)CNCc1ccc2cccc(NS(=O)(=O)c3ccc(C(F)(F)F)cc3)c2n1 [ZDR266, 2-(((8-((4-(Trifluoromethyl)phenyl)sulfonamido)quinolin-2-yl)methyl)amino)acetamide trifluoroacetate]	64	32	16	16	128	256
–	–	–	–	–	–	O=C(CNCc1ccc2cccc(NS(=O)(=O)c3ccc(C(F)(F)F)cc3)c2n1)NO [ZDR267, N-hydroxy-2-(((8-((4-(trifluoromethyl)phenyl)sulfonamido)quinolin-2-yl)methyl)amino)acetamide trifluoroacetate]	256	128	256	256	> 256	> 256
–	–	–	–	–	–	CN(C)CCNC(=O)CNCc1ccc2cccc(NS(=O)(=O)c3ccc(C(F)(F)F)cc3)c2n1 [ZDR268, N-(2-(Dimethylamino)ethyl)-2-(((8-((4-(trifluoromethyl)phenyl)sulfonamido)quinolin-2-yl)methyl)amino)acetamide di-trifluoroacetate]	64 (≈ 126 µM)	128 (≈ 251 µM)	32 (≈ 62.8 µM)	16 (≈ 31.4 µM)	64 (≈ 126 µM)	64 (≈ 126 µM)
–	–	–	–	–	–	CNC(=O)CNCc1ccc2cccc(NS(=O)(=O)c3ccc(C(F)(F)F)cc3)c2n1 [ZDR270, N-Methyl-2-(((8-((4-(trifluoromethyl)phenyl)sulfonamido)quinolin-2-yl)methyl)amino)acetamide trifluoroacetate]	32	32	16	4	128	256
64 (≈ 152 µM)	128 (≈ 305 µM)	> 256	0.0625 (≈ 0.149 µM)	> 256	> 256	CN(C)Cc1ccc2cccc(NS(=O)(=O)c3ccc(Br)cc3)c2n1 [ZDR305, 4-Bromo-N-(2-((dimethylamino)methyl)quinolin-8-yl)benzenesulfonamide]	–	–	–	–	–	–
128 (≈ 314 µM)	128 (≈ 314 µM)	128 (≈ 314 µM)	0.125 (≈ 0.307 µM)	> 256	> 256	CN(C)Cc1ccc2cccc(NS(=O)(=O)c3ccc(OC(F)F)cc3)c2n1 [ZDR306, 4-(Difluoromethoxy)-N-(2-((dimethylamino)methyl)quinolin-8-yl)benzenesulfonamide]	–	–	–	–	–	–
> 256	> 256	> 256	0.0625 (≈ 0.157 µM)	> 256	> 256	CN(C)Cc1ccc2cccc(NS(=O)(=O)c3ccc(C(C)(C)C)cc3)c2n1 [ZDR307, 4-(tert-Butyl)-N-(2-((dimethylamino)methyl)quinolin-8-yl)benzenesulfonamide]	–	–	–	–	–	–
256 (≈ 641 µM)	> 256	256 (≈ 641 µM)	0.25 (≈ 0.626 µM)	256 (≈ 641 µM)	> 256	COC(=O)c1cccc(S(=O)(=O)Nc2cccc3ccc(CN(C)C)nc23)c1 [ZDR308, Methyl 3-(N-(2-((dimethylamino)methyl)quinolin-8-yl)sulfamoyl)benzoate]	–	–	–	–	–	–
64 (≈ 152 µM)	128 (≈ 305 µM)	128 (≈ 305 µM)	0.125 (≈ 0.297 µM)	> 256	> 256	CN(C)Cc1ccc2cccc(NS(=O)(=O)c3cccc(Br)c3)c2n1 [ZDR309, 3-Bromo-N-(2-((dimethylamino)methyl)quinolin-8-yl)benzenesulfonamide]	–	–	–	–	–	–
> 256	> 256	256 (≈ 610 µM)	4 (≈ 9.53 µM)	> 256	> 256	CN(C)Cc1ccc2cccc(NS(=O)(=O)c3cccc(S(C)(=O)=O)c3)c2n1 [ZDR310, N-(2-((Dimethylamino)methyl)quinolin-8-yl)-3-(methylsulfonyl)benzenesulfonamide]	–	–	–	–	–	–
> 256	256 (≈ 668 µM)	256 (≈ 668 µM)	0.0625 (≈ 0.163 µM)	> 256	> 256	CC(=O)c1cccc(S(=O)(=O)Nc2cccc3ccc(CN(C)C)nc23)c1 [ZDR311, 3-Acetyl-N-(2-((dimethylamino)methyl)quinolin-8-yl)benzenesulfonamide]	–	–	–	–	–	–
256 (≈ 712 µM)	256 (≈ 712 µM)	128 (≈ 356 µM)	0.125 (≈ 0.348 µM)	> 256	> 256	CN(C)Cc1ccc2cccc(NS(=O)(=O)c3cccc(F)c3)c2n1 [ZDR312, N-(2-((Dimethylamino)methyl)quinolin-8-yl)-3-fluorobenzenesulfonamide]	–	–	–	–	–	–
128 (≈ 331 µM)	> 256	128 (≈ 331 µM)	0.25 (≈ 0.647 µM)	> 256	> 256	CN(C)Cc1ccc2cccc(NS(=O)(=O)c3cccc([N+](=O)[O-])c3)c2n1 [ZDR313, N-(2-((Dimethylamino)methyl)quinolin-8-yl)-3-nitrobenzenesulfonamide]	–	–	–	–	–	–
256 (≈ 689 µM)	> 256	128 (≈ 345 µM)	0.25 (≈ 0.673 µM)	> 256	> 256	COc1cccc(S(=O)(=O)Nc2cccc3ccc(CN(C)C)nc23)c1 [ZDR314, N-(2-((Dimethylamino)methyl)quinolin-8-yl)-3-methoxybenzenesulfonamide]	–	–	–	–	–	–
256 (≈ 720 µM)	> 256	> 256	0.25 (≈ 0.703 µM)	> 256	> 256	Cc1cccc(S(=O)(=O)Nc2cccc3ccc(CN(C)C)nc23)c1 [ZDR315, N-(2-((Dimethylamino)methyl)quinolin-8-yl)-3-methylbenzenesulfonamide]	–	–	–	–	–	–
> 256	> 256	> 256	0.125 (≈ 0.346 µM)	> 256	> 256	CN(C)Cc1ccc2cccc(NS(=O)(=O)CCC(F)(F)F)c2n1 [ZDR316, N-(2-((Dimethylamino)methyl)quinolin-8-yl)-3,3,3-trifluoropropane-1-sulfonamide]	–	–	–	–	–	–
> 256	128 (≈ 360 µM)	256 (≈ 720 µM)	0.25 (≈ 0.703 µM)	> 256	> 256	CN(C)Cc1ccc2cccc(NS(=O)(=O)Cc3ccccc3)c2n1 [ZDR317, N-(2-((Dimethylamino)methyl)quinolin-8-yl)-1-phenylmethanesulfonamide]	–	–	–	–	–	–
> 256	> 256	256 (≈ 833 µM)	32 (≈ 104 µM)	> 256	> 256	CC(C)S(=O)(=O)Nc1cccc2ccc(CN(C)C)nc12 [ZDR318, N-(2-((Dimethylamino)methyl)quinolin-8-yl)propane-2-sulfonamide]	–	–	–	–	–	–
> 256	> 256	> 256	1 (≈ 2.47 µM)	> 256	> 256	COC(=O)c1sccc1S(=O)(=O)Nc1cccc2ccc(CN(C)C)nc12 [ZDR319, Methyl 3-(N-(2-((dimethylamino)methyl)quinolin-8-yl)sulfamoyl)thiophene-2-carboxylate]	–	–	–	–	–	–
> 256	128 (≈ 302 µM)	256 (≈ 605 µM)	0.0625 (≈ 0.148 µM)	> 256	> 256	CN(C)Cc1ccc2cccc(NS(=O)(=O)Cc3ccc(C(F)(F)F)cc3)c2n1 [ZDR320, N-(2-((Dimethylamino)methyl)quinolin-8-yl)-1-(4-(trifluoromethyl)phenyl)methanesulfonamide]	–	–	–	–	–	–
> 256	128 (≈ 398 µM)	256 (≈ 796 µM)	0.25 (≈ 0.778 µM)	> 256	> 256	CCCCS(=O)(=O)Nc1cccc2ccc(CN(C)C)nc12 [ZDR321, N-(2-((Dimethylamino)methyl)quinolin-8-yl)butane-1-sulfonamide]	–	–	–	–	–	–
128 (≈ 340 µM)	> 256	> 256	0.25 (≈ 0.663 µM)	> 256	> 256	CN(C)Cc1ccc2cccc(NS(=O)(=O)c3ccc(Cl)nc3)c2n1 [ZDR322, 6-Chloro-N-(2-((dimethylamino)methyl)quinolin-8-yl)pyridine-3-sulfonamide]	–	–	–	–	–	–
> 256	256 (≈ 838 µM)	> 256	1 (≈ 3.27 µM)	> 256	> 256	CN(C)Cc1ccc2cccc(NS(=O)(=O)C3CC3)c2n1 [ZDR323, N-(2-((Dimethylamino)methyl)quinolin-8-yl)cyclopropanesulfonamide]	–	–	–	–	–	–
256 (≈ 693 µM)	256 (≈ 693 µM)	256 (≈ 693 µM)	1 (≈ 2.71 µM)	> 256	> 256	CN(C)Cc1ccc2cccc(NS(=O)(=O)c3ccc(C=O)cc3)c2n1 [ZDR324, N-(2-((Dimethylamino)methyl)quinolin-8-yl)-4-formylbenzenesulfonamide]	–	–	–	–	–	–
